Patent publication US10357486B2, “Treatment of cognitive impairment with PDE4 inhibitor” (Universiteit Maastricht, priority 2013, dated 2019)

Key:
Format in all cases: in vivo, human
[1] = test system: 60 to 80 years old subjects (Impaired Elderly and Healthy Elderly); assay: Spatial Memory Task and Stroop task in 60 to 80 years old subjects, interim analysis; conditions: 100, 250, 1000 mcg
Method: (§1) The study is conducted according to a double-blind, placebo-controlled, four-period cross-over design. Forty healthy subjects, both male and female within an age range of 60 to 80 years are planned to be included in the study in 2 groups: 1) 20 subjects with a memory performance between 1-2 Standard Deviation below the average for their age, gender, and educated level (Impaired Elderly) and 2) 20 subjects with age (±3 years), gender, and educational level matched (in order to speed up the study matching was stopped after the interim analysis) with an average memory performance between 0.5 Standard Deviation below and 0.5 Standard Deviation above from normative values (Healthy Elderly). Classification in terms of impaired or healthy elderly will be determined by a one-off testing of memory performance using the Rey Verbal Learning Task (Rey A; L'examen psychologique dans les cas d'encephalopathy traumatique 1958 Paris; Presses Universitaire de France; or Van der Elst et al; J Int Neuropsychol Soc 2005, 11 (3), pp 290-302) according to fully standardized procedures as applied in The Maastricht Aging Study (Jolles et al; Maastricht Aging Study; determinants of cognitive aging; Maastricht, The Netherlands, Neuropsych Publishers 1995). […]

[2] = test system: 60 to 80 years old subjects (Impaired Elderly and Healthy Elderly); assay: Bond-Lader Visual Analogue Scales (BL-VAS) in 60 to 80 years old subjects, interim analysis; conditions: low dose (100 mcg); at 45 min
Method: as §1

[3] = Plasma concentration levels of roflumilast and roflumilast-N-oxide in humans
Source text: An interim analysis has been performed based on the data of 9 subjects of the Impaired Elderly group and 4 subjects of the Healthy Elderly group. For this purpose, cognitive battery test scores (VLT, SMT, Stroop task and BL-VAS) and concentrations of roflumilast and roflumilast-N-oxide in plasma have been analysed and summarized by dose over each scheduled sampling time using descriptive statistics.

[4] = test system: healthy adults (18 to 35 years); assay: Spatial Memory Task, Stroop task and Continuous Performance task in healthy adults; conditions: 100 mcg, 300 mcg, 1000 mcg single administration
Method: In addition to the VLT (immediate recall and delayed recall), the subjects were also tested in the Spatial Memory Task, the Stroop task and the Continuous Performance task (a description of these additional cognitive battery tests can be found in Example 3).
Spatial memory task (SMT) The spatial memory task assesses spatial memory and is based on the object relocation task by Postma and colleagues (Kessels, Postma et al, Behav Res Methods Instrum Comput. 1999, Vol 31(3) pp 423-428). It consists of one immediate and two delayed conditions. In the immediate condition, a set of 10 pictures will be presented one by one on different locations within a white square on a computer screen. All pictures are everyday, easy-to-name objects, presented in gray scale (±3.5×5 cm). Each picture will be presented for 2000 msec with an interstimulus interval of 1000 msec. […]
Twenty-four hours after the immediate condition, subjects will return to the lab and perform the task again. […] As with the other tests, the EEG will be recorded during this task and this will later be analysed. No EEG will be recorded during the 24h-measurement. […]
Stroop task The Stroop task is well known for its ability to induce interference, and assesses response inhibition and focused attention. […] However, because of the urge to read the printed words (even if one is asked to ignore them) interference occurs. […]

In the case of O=C(Nc1c(Cl)cncc1Cl)c1ccc(OC(F)F)c(OCC2CC2)c1 [roflumilast, N-(3,5-dichloropyridin-4-yl)-3-cyclopropylmethoxy-4-difluoromethoxybenzamide], the “difference between placebo and drug treatment in the Spatial Memory Task and Stroop task” value [1] is reported as “No statistically significant differences”, the “(subjective) alertness in comparison with placebo, based on BL-VAS scores” value [2] is reported as “significantly higher” and the “exposure (concentrations in plasma)” value ([3]; elderly study, interim analysis, 100, 250, 1000 mcg) is reported as “consistent with those previously reported”. For the same molecule, the “steady state plasma concentration levels in once a day repeated dosing compared to once a day single dosing” value ([3]; humans, once a day (24 h) regimen) was “about two-fold” and the “difference between placebo and drug treatment in the Spatial Memory Task, the Stroop task and the Continuous Performance task” value [4] was “No statistically significant differences”.
